# Measurements taken from article PMC10766964, “Copper-catalyzed synthesis of pyrazolo[1,5-a]pyrimidine based triazole-linked glycohybrids: mechanistic insights and bio-applications” (Scientific Reports, 2024).
# Where two headings read alike, the source gives them in different places.
# Columns and labels:
# [1] = test system: MDA-MB-231 (human breast cancer) cell line; experiment: MTT cell viability assay in MDA-MB-231 cells; type: cell-based; conditions: 72 h; for viability at 20 µM: positive control at 20 µM; for viability at 0.02 µM: positive control at 20 nM
# Experimental: Thus, we screened the synthesized library of pyrazolo[1,5-a]pyrimidin-7-ols 4a–4i. Anticancer activity (in terms of growth inhibition/decreased cell viability with respect to control) of all synthesized compounds (n = 9) was investigated by MTT assay in MDA-MB-231 (human breast cancer) cell line at different concentrations for 72 h. […] Thus, it was aimed to investigate the anticancer activity of a synthesized library of triazole-linked glycohybrids of pyrazolo[1,5-a]pyrimidines. […] The MTT assay was used to investigate the anticancer activity of twenty-seven synthesized compounds on the growth inhibition and decrement in cell viability of MDA-MB-231 (human breast cancer). Different concentrations were tested for 72 h, and the results were compared to a control. MDA-MB-231, a human breast cancer cell line, was cultured under standard conditions. Specifically, they were grown in Dulbecco’s Modified Eagle’s Medium (DMEM) supplemented with 10% heat-inactivated Fetal Bovine Serum (FBS) and 1% penicillin–streptomycin. The cells were maintained as a monolayer in a 100 mm culture plate and were used for experiments before reaching their 8th passage. Subculturing was performed every third-day using trypsin EDTA treatment. All incubation and maintenance procedures were carried out in a humidified CO2 incubator at 37 °C. To evaluate cell viability, the MTT assay was conducted following standard procedures. After 72 h of cell incubation with or without each compound, cell viability was assessed using MTT (3-(4,5-dimethylthiazol-2-yl)-2,5-diphenyltetrazolium bromide), which is a colorimetric method for determining the number of viable cells in various assays including proliferation, cytotoxicity, or chemosensitivity. The MTT reagent was added to the cells after removal of the medium and incubated for 3 h at 37 °C in the CO2 incubator. The formazan product, which is […] in the tissue culture medium, was dissolved in DMSO, and the absorbance of the formazan product was directly measured at 595 nm using a multimode plate reader without additional processing. The absorbance values are directly proportional to the number of viable cells in culture. The percentage of viable cells in each group was determined relative to the untreated control cells.
# [2] = test system: MCF-7 (hormone receptor/HR-positive breast cancer cells); experiment: MTT cell viability assay in MCF-7 cells; type: cell-based; conditions: Homo sapiens, MCF7; MCF-7, positive control at 20 nM; read-out: Cell viability (%) ± SD
# Experimental: MDA-MB-231 represents a specific subtype known as triple-negative breast cancer (TNBC). The investigation study was extended with active six hit compounds (9a, 9d, 9h, 10d, 10f, and 11g) in two other different cancer cell lines (MCF-7 and MDA-MB-453), each representing a separate class of breast cancers (MCF-7: hormone receptor/HR-positive; MDA-MB-453: human epidermal growth factor 2 receptor/HER2 positive).
# We also included normal mammary epithelial MCF-10A cells in our experiments to confirm if the growth-inhibitory activities of the selected compounds are truly cancer cell-specific. The activity data from MCF-7 and MDA-MB-453 cell lines (tested at 1 µM, 10 µM and 25 µM) and activity data from MCF-10A cell line (tested at 25 µM, 50 µM and 100 µM) are summarized in Table 3.
# To evaluate cell viability, the MTT assay was conducted following standard procedures. After 72 h of cell incubation with or without each compound, cell viability was assessed using MTT (3-(4,5-dimethylthiazol-2-yl)-2,5-diphenyltetrazolium bromide), which is a colorimetric method for determining the number of viable cells in various assays including proliferation, cytotoxicity, or chemosensitivity. The MTT reagent was added to the cells after removal of the medium and incubated for 3 h at 37 °C in the CO2 incubator. The formazan product, which is […] in the tissue culture medium, was dissolved in DMSO, and the absorbance of the formazan product was directly measured at 595 nm using a multimode plate reader without additional processing. The absorbance values are directly proportional to the number of viable cells in culture. The percentage of viable cells in each group was determined relative to the untreated control cells.
# [3] = test system: MDA-MB-453 (HER2 positive breast cancer cells); experiment: MTT cell viability assay in MDA-MB-453 cells; type: cell-based, human; conditions: Homo sapiens; MDA-MB-453, positive control at 20 nM; read-out: Cell viability (%) ± SD
# Experimental: MDA-MB-231 represents a specific subtype known as triple-negative breast cancer (TNBC). The investigation study was extended with active six hit compounds (9a, 9d, 9h, 10d, 10f, and 11g) in two other different cancer cell lines (MCF-7 and MDA-MB-453), each representing a separate class of breast cancers (MCF-7: hormone receptor/HR-positive; MDA-MB-453: human epidermal growth factor 2 receptor/HER2 positive). […] We also included normal mammary epithelial MCF-10A cells in our experiments to confirm if the growth-inhibitory activities of the selected compounds are truly cancer cell-specific. The activity data from MCF-7 and MDA-MB-453 cell lines (tested at 1 µM, 10 µM and 25 µM) and activity data from MCF-10A cell line (tested at 25 µM, 50 µM and 100 µM) are summarized in Table 3. To evaluate cell viability, the MTT assay was conducted following standard procedures. After 72 h of cell incubation with or without each compound, cell viability was assessed using MTT (3-(4,5-dimethylthiazol-2-yl)-2,5-diphenyltetrazolium bromide), which is a colorimetric method for determining the number of viable cells in various assays including proliferation, cytotoxicity, or chemosensitivity. The MTT reagent was added to the cells after removal of the medium and incubated for 3 h at 37 °C in the CO2 incubator. The formazan product, which is […] in the tissue culture medium, was dissolved in DMSO, and the absorbance of the formazan product was directly measured at 595 nm using a multimode plate reader without additional processing. The absorbance values are directly proportional to the number of viable cells in culture. The percentage of viable cells in each group was determined relative to the untreated control cells.
# [4] = MTT cell viability assay in normal MCF-10A cells; type: cell-based; conditions: human, MCF-10A normal mammary epithelial cells; MCF-10A normal cells, positive control at 20 nM; read-out: Cell viability (%) ± SD
# Experimental: We also included normal mammary epithelial MCF-10A cells in our experiments to confirm if the growth-inhibitory activities of the selected compounds are truly cancer cell-specific. The activity data from MCF-7 and MDA-MB-453 cell lines (tested at 1 µM, 10 µM and 25 µM) and activity data from MCF-10A cell line (tested at 25 µM, 50 µM and 100 µM) are summarized in Table 3. To evaluate cell viability, the MTT assay was conducted following standard procedures. After 72 h of cell incubation with or without each compound, cell viability was assessed using MTT (3-(4,5-dimethylthiazol-2-yl)-2,5-diphenyltetrazolium bromide), which is a colorimetric method for determining the number of viable cells in various assays including proliferation, cytotoxicity, or chemosensitivity. The MTT reagent was added to the cells after removal of the medium and incubated for 3 h at 37 °C in the CO2 incubator. The formazan product, which is […] in the tissue culture medium, was dissolved in DMSO, and the absorbance of the formazan product was directly measured at 595 nm using a multimode plate reader without additional processing. The absorbance values are directly proportional to the number of viable cells in culture. The percentage of viable cells in each group was determined relative to the untreated control cells.
# [5] = Table 1, MDA-MB-231, MTT, read-out: Cell Viability (%) ± SD
# [6] = Table 2, MDA-MB-231, MTT, read-out: Cell viability (%) ± SD
compound,measurement,setting,value
"CC(=O)OC[C@H]1O[C@H](n2cc(COc3cc(-c4ccc5c(c4)OCO5)nc4ccnn34)nn2)[C@@H](OC(C)=O)[C@@H](OC(C)=O)[C@@H]1OC(C)=O [Compound 11i, (2R,3R,4S,5S,6S)-2-(acetoxymethyl)-6-(4-(((5-(benzo[d][1,3]dioxol-5-yl)pyrazolo[1,5-a]pyrimidin-7-yl)oxy)methyl)-1H-1,2,3-triazol-1-yl)tetrahydro-2H-pyran-3,4,5-triyl triacetate]",viability at 10 µM,"[1]; Table 2, MDA-MB-231, MTT, 10 µM, read-out: Cell viability (%) ± SD",97.5 ± 4.91%
same,viability at 25 µM,"[1]; Table 2, MDA-MB-231, MTT, 25 µM, read-out: Cell viability (%) ± SD",95.3 ± 3.6%
same,viability at 50 µM,"[1]; Table 2, MDA-MB-231, MTT, 50 µM, read-out: Cell viability (%) ± SD",93.9 ± 9.08%
"CC1=CC(=O)c2ccccc2C1=O [Menadione, menadione, reference compound]",viability at 20 µM,[1]; [5],21.8 ± 4.7%
same,viability at 20 µM,[1]; [6],20.8 ± 6.7%
"COCCn1c2c([n+](Cc3cnccn3)c1C)C(=O)c1ccccc1C2=O [YM155, reference compound]",viability at 0.02 µM,[1]; [5],20.4 ± 5.13%
same,viability at 0.02 µM,[1]; [6],26.4 ± 3.93%
same,viability at 0.02 µM,[2],32.2 ± 1.7%
same,viability at 0.02 µM,[3],35.2 ± 1.5%
same,"viability at 72 h, 0.02 µM",[4],38.2 ± 1.6%
